The values that follow are results of earlier work, collected in article PMC9851200, “Multiparameter phenotypic screening for endogenous TFEB and TFE3 translocation identifies novel chemical series modulating lysosome function” (Autophagy, 2022).

Common to all, as to set-up: method as in original PKIS2 published data
Data set [1] concerns the target kinases (KINOMEscan panel) (Homo sapiens, UniProt O96013). As to conditions: PAK4; Published KINOMEscan; ref original PKIS2 published data; cited from earlier work.
Data set [2] deals with kinases (KINOMEscan panel) (Homo sapiens, UniProt P22694). The conditions noted are these: PRKACB; Published KINOMEscan; ref original PKIS2 published data; cited from earlier work.
In data set [3] the target is T1, kinases (KINOMEscan panel) (Homo sapiens, UniProt P33981).
T1 sequence (P33981 1-857): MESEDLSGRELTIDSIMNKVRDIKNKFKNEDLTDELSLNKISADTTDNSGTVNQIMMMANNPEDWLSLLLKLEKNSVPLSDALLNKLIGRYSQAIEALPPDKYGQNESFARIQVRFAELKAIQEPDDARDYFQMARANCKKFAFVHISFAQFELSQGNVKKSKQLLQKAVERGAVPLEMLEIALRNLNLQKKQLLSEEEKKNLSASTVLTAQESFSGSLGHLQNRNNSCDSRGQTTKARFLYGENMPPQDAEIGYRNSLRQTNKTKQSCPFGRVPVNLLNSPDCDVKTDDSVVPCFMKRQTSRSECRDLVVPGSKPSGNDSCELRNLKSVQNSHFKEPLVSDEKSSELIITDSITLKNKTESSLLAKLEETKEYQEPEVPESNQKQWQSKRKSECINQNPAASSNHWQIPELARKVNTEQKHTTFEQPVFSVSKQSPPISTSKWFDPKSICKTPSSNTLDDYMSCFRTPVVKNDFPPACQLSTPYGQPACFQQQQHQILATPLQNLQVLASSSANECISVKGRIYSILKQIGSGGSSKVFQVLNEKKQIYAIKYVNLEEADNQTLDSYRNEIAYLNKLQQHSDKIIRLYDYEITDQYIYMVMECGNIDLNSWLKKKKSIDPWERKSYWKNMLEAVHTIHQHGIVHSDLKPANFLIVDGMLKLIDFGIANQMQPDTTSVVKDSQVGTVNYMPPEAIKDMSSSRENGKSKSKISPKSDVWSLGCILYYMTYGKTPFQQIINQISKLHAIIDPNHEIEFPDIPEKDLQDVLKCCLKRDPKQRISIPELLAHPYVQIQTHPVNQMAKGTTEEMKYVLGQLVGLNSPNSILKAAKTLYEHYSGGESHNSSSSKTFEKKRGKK
As to conditions: Published KINOMEscan; ref original PKIS2 published data; cited from earlier work.

Data set [4] has as its target kinases (KINOMEscan panel) (Homo sapiens, UniProt P80192). As to conditions: Published KINOMEscan; ref original PKIS2 published data; cited from earlier work.
The target in data set [5] is T2, kinases (KINOMEscan panel) (Homo sapiens, UniProt Q16832).
T2 sequence (Q16832 22-855): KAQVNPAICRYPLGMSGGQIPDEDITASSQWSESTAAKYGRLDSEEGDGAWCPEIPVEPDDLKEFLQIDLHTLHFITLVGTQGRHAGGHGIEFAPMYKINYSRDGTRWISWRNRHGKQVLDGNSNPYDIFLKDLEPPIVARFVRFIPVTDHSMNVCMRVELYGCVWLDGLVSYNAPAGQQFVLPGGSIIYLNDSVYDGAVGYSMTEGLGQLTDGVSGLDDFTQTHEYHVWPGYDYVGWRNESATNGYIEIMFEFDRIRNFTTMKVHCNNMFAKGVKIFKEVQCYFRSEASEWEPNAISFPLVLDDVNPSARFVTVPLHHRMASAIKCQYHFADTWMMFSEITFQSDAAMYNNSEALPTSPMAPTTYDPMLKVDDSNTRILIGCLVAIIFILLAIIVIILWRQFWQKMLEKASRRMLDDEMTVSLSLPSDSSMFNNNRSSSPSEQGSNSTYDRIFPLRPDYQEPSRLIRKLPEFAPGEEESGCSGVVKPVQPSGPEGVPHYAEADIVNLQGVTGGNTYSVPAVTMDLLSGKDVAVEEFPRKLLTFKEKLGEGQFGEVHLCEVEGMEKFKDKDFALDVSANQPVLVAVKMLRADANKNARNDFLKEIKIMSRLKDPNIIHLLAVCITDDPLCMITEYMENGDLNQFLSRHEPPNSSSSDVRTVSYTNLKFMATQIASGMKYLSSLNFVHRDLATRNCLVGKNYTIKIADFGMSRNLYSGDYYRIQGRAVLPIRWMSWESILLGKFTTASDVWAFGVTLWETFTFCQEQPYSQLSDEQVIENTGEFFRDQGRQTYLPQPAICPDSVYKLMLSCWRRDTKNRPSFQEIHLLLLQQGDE
The conditions noted are these: DDR2; Published KINOMEscan; ref original PKIS2 published data; cited from earlier work.

The target in data set [6] is kinases (KINOMEscan panel) (Homo sapiens, UniProt Q86UE8). As to conditions: kinase TLK2; Published KINOMEscan; ref original PKIS2 published data; cited from earlier work.
Chain of kinases (KINOMEscan panel) (Homo sapiens, UniProt Q86UE8) (Q86UE8 whole entry): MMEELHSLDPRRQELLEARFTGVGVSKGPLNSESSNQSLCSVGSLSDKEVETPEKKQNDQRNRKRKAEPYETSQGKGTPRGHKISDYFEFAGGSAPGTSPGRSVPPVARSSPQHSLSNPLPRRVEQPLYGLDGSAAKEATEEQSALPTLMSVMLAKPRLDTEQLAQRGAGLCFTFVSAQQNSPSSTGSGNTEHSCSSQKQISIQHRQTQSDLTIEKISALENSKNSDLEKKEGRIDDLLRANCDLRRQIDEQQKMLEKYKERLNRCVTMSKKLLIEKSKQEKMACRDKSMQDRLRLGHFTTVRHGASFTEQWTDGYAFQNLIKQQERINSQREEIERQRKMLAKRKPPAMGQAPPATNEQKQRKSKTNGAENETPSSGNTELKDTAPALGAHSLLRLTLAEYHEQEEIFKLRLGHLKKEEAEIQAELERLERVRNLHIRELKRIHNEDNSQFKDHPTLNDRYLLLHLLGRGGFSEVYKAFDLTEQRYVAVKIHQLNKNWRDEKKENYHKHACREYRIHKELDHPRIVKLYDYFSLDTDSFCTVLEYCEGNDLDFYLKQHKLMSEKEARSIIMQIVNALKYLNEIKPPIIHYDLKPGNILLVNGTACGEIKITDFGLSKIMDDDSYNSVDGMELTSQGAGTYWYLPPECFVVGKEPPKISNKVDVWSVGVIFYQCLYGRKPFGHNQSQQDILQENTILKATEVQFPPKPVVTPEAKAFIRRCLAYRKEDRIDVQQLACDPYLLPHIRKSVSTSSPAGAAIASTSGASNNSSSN
The target of data set [7] is T3, kinases (KINOMEscan panel) (Homo sapiens, UniProt Q8IW41).
T3 sequence (Q8IW41 1-473): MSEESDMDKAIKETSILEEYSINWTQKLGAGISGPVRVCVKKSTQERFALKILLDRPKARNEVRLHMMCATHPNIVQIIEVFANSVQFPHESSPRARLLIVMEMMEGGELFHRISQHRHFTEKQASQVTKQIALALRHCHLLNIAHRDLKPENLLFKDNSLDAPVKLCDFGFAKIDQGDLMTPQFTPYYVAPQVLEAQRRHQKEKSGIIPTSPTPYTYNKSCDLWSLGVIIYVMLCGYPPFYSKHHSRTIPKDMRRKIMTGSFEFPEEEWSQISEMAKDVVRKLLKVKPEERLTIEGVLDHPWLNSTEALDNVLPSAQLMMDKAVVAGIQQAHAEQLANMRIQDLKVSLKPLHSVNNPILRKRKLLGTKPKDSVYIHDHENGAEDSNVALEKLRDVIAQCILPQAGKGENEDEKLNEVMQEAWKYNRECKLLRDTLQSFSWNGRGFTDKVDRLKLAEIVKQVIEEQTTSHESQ
The conditions noted are these: MAPKAPK5; Published KINOMEscan; ref original PKIS2 published data; cited from earlier work.

Data set [8] deals with kinases (KINOMEscan panel) (Homo sapiens, UniProt Q9H422). As to conditions: kinase HIPK3; Published KINOMEscan; ref original PKIS2 published data; cited from earlier work.
Chain of kinases (KINOMEscan panel) (Homo sapiens, UniProt Q9H422) (Q9H422 whole entry): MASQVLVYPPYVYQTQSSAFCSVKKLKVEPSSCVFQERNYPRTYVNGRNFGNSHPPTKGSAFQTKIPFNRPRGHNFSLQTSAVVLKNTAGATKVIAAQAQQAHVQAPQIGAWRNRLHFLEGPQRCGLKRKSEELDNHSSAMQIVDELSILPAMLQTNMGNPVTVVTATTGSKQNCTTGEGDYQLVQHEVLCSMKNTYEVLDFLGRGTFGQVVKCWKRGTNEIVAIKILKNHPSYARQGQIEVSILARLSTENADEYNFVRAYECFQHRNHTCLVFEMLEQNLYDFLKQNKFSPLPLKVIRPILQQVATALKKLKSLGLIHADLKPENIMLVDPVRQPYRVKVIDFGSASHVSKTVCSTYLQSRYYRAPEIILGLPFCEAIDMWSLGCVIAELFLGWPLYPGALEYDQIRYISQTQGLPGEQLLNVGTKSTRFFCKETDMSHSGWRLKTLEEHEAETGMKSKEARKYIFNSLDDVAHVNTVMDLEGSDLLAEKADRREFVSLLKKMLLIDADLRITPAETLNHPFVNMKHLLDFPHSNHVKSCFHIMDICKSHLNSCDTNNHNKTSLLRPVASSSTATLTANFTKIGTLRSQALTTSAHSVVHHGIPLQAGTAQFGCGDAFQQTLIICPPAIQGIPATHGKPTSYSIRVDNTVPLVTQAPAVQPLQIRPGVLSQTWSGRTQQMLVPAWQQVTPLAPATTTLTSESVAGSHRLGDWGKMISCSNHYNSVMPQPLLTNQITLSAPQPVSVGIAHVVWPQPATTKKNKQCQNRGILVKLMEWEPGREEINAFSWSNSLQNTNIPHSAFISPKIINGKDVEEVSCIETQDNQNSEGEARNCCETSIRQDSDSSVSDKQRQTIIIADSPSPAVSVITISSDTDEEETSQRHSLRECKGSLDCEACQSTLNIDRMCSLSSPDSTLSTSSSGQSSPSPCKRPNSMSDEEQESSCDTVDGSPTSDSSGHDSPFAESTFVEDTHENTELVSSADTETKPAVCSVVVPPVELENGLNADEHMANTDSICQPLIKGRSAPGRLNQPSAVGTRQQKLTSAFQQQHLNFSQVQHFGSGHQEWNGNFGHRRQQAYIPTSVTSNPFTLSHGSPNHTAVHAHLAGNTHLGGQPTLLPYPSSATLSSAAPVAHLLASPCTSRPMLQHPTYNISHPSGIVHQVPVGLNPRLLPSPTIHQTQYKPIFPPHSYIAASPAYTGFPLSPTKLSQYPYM
For data set [9], the target named is kinases (KINOMEscan panel) (Homo sapiens, UniProt Q9Y4K4). As to conditions: kinase MAP4K5; Published KINOMEscan; ref original PKIS2 published data; cited from earlier work.
Chain of kinases (KINOMEscan panel) (Homo sapiens, UniProt Q9Y4K4) (Q9Y4K4 whole entry): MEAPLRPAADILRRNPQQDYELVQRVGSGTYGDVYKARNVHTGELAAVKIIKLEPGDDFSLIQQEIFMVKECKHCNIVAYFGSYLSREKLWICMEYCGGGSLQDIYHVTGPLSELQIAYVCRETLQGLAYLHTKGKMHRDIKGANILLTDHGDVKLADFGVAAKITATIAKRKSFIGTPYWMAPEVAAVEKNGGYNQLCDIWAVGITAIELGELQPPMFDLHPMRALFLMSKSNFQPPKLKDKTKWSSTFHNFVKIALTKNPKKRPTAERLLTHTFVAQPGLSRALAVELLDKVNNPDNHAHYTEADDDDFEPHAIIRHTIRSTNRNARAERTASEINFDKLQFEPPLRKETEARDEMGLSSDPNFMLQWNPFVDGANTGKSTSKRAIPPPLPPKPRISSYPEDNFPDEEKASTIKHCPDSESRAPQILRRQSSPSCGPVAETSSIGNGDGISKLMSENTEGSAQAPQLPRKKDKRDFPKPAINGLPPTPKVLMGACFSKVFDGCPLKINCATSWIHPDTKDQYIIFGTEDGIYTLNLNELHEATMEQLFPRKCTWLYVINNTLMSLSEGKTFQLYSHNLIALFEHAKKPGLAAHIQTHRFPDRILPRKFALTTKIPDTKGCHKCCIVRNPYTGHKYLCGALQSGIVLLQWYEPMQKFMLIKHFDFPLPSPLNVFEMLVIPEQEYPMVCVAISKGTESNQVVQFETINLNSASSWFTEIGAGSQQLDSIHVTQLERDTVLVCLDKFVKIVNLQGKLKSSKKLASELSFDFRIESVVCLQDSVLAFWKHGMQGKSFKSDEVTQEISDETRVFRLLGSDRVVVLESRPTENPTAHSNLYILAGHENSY

Chain of kinases (KINOMEscan panel) (Homo sapiens, UniProt P80192) (P80192 whole entry): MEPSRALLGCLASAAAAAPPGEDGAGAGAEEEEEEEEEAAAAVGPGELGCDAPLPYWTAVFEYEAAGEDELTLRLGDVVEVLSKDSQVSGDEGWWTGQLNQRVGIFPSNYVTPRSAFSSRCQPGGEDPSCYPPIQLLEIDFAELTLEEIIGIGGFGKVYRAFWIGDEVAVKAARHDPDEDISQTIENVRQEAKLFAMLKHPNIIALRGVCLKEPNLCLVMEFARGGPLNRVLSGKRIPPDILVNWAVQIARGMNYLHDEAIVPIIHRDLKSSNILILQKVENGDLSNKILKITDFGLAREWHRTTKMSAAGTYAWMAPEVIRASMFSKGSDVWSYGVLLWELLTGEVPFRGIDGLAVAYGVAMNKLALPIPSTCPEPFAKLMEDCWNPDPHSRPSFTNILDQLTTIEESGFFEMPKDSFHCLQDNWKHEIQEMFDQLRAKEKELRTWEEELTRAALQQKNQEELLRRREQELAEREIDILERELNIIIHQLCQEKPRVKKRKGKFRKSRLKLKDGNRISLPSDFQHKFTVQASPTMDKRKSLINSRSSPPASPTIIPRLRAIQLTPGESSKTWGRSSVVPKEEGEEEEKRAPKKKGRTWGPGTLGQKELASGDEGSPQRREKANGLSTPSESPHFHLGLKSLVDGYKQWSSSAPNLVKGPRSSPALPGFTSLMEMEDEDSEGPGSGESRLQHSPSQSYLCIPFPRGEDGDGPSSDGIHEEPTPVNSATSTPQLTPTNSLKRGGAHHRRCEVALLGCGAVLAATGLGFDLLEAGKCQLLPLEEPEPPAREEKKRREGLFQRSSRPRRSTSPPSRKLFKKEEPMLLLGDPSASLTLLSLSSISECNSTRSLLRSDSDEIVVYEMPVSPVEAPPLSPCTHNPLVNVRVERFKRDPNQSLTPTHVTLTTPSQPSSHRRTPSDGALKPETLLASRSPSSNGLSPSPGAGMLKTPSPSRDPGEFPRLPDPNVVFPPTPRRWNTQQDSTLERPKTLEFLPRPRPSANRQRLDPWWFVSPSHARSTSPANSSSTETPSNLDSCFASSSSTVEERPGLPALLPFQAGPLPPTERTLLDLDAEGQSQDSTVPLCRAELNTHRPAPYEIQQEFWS
Chain of kinases (KINOMEscan panel) (Homo sapiens, UniProt O96013) (O96013 whole entry): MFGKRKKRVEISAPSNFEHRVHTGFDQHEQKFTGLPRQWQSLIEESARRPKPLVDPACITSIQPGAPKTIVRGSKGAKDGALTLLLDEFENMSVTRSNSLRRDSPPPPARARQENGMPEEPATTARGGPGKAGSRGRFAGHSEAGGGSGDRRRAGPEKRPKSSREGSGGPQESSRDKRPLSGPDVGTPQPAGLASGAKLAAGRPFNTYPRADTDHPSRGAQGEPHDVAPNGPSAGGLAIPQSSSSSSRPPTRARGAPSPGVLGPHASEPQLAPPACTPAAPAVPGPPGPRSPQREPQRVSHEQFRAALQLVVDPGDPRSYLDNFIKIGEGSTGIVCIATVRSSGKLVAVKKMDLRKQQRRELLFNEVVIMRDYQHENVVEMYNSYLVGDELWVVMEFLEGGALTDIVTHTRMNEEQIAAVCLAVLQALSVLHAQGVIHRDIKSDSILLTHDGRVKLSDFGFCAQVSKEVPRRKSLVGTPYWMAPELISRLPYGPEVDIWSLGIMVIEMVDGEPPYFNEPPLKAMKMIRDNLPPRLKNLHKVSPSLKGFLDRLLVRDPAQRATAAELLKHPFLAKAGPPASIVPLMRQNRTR

Turning to `Cc1cccc(-c2nc(Nc3ccncc3)c3ccccc3n2)n1` [NK215], the “KINOMEscan PAK4” value in data set [1] is reported as 0. In addition, the “KINOMEscan PRKACB” value in data set [2] was 30. The “KINOMEscan TTK” value in [3] was 10. Besides, in data set [4], the “KINOMEscan MAP3K9” value is recorded as 11. The “KINOMEscan DDR2” value in data set [5] is reported as 45. Also, the “KINOMEscan TLK2” value in data set [6] is listed as 0. In addition, the “KINOMEscan MAPKAPK5” value in data set [7] was 0. In addition, in data set [8], the “KINOMEscan HIPK3” value is recorded as 0. Moreover, the “KINOMEscan MAP4K5” value in [9] is recorded as 0.
